The term melting point denotes the temperature, or range, at which the solid turns liquid. `O=C1CCc2c(OCC3(O)CCN(c4cc(CCOc5ccc(F)cc5)c(Cl)cc4F)CC3)ccc(F)c2N1`: the melting point lay within 156 to 156.1 °C.

`O=C1CCc2c(OC[C@]3(O)CCN(c4nc5ccccc5o4)C[C@H]3O)ccc(F)c2N1` yielded a melting point of 190 to 191 °C.

`O=C1CCc2c(OCC3(O)CCN(c4ccc(OCCF)cc4F)CC3)ccc(F)c2N1` came in with a melting point of 186.5 to 186.7 °C.

Turning to `N#C[C@H]1CN(c2ncc(Cl)cc2Cl)CC[C@@]1(O)COc1ccc(F)c2c1CCC(=O)N2` (relative stereo), the melting point lay in the range of 206 to 207 °C.

`O=C1CCc2c(OC[C@]3(O)CCN(c4cc(F)c(Cl)cc4Cl)C[C@H]3O)ccc(Cl)c2N1` came in with a melting point of 180.2 to 180.6 °C.

`CCOC(=O)c1cc(N2CCC(O)(COc3ccc(F)c4c3CCC(=O)N4)CC2)ccc1Cl` came in with a melting point of 148 °C.

For `CC(C)c1cccc(N2CCC(O)(COc3ccc(F)c4c3CCC(=O)N4)CC2)c1`, the melting point was 131.1 to 131.3 °C.

`O=C1CCc2c(OC[C@]3(O)CCN(c4cc(Cl)c(F)cc4Cl)C[C@H]3O)ccc(F)c2N1` came in with a melting point of 216 to 216.3 °C.

Turning to `O=C1CCc2c(OC[C@@]3(O)CCN(c4cc(F)c(Cl)cc4F)C[C@H]3O)ccc(F)c2N1` (relative stereo), the melting point lay within 184 to 185 °C.

`O=C1CCc2c(OC[C@]3(O)CCN(c4c(F)cc(F)cc4Cl)C[C@H]3O)ccc(F)c2N1` (relative stereo) [Example 303] registered a melting point of 215 to 218 °C.

Regarding `CCc1ccc(N2CCC(O)(COc3ccc(F)c4c3CCC(=O)N4)CC2)c(Cl)c1`, the melting point was 167.8 to 168 °C.

The compound `O=C1CCc2c(OC[C@]3(O)CCN(c4c(F)cc(OCC(F)(F)F)cc4F)C[C@H]3O)ccc(F)c2N1` [Example 311] returned a melting point of 187 °C.

For `O=C1CCc2c(OC[C@]3(O)CCN(c4c(F)cc(Br)cc4F)C[C@H]3O)ccc(F)c2N1` [Example 302], the melting point was in the range of 197 to 198 °C.

`CCCc1cc(N2CCC(O)(COc3ccc(F)c4c3CCC(=O)N4)CC2)c(F)cc1F` had a melting point of 184.7 to 184.8 °C.

On to `O=C1CCc2c(OCC3(O)CCN(c4cccc(Cl)c4Cl)CC3)ccc(F)c2N1`, for which the melting point stood at 228.7 °C.

Regarding `Cc1cc(Cl)cc(F)c1N1CCC(O)(COc2ccc(F)c3c2CCC(=O)N3)CC1`, the melting point lay in the range of 258.8 to 259 °C.

In turn, `Cc1cc(N2CCC(O)(COc3ccc(Cl)c4c3CCC(=O)N4)CC2)c(F)cc1Cl` displayed a melting point of 212.2 to 213.1 °C.

`CCOc1cc(F)c(N2CC[C@@](O)(COc3ccc(F)c4c3CCC(=O)N4)[C@H](O)C2)c(F)c1` [Example 317]: the melting point is 176 to 178 °C.

For `O=C1CCc2c(OCC3(O)CCN(c4ccc(Cl)cc4F)CC3)ccc(Cl)c2N1`, the melting point was 222.9 to 223 °C.

In turn, `O=C1CCc2c(OC[C@]3(O)CCN(c4nc5ccc(Cl)cc5o4)C[C@H]3O)ccc(F)c2N1` displayed a melting point of 219 to 220 °C.

Consider `O=C1CCc2c(OC[C@@]3(O)CCN(c4c(F)cc(Cl)cc4F)C[C@@H]3O)cc(F)c(F)c2N1` (relative stereo), for which the melting point lay in the range of 215 to 217 °C.

In turn, `COc1cc(N2CCC(O)(COc3ccc(Cl)c4c3CCC(=O)N4)CC2)c(F)cc1Cl` displayed a melting point of 228.7 to 228.9 °C.

With `O=C1CCc2c(OCC3(O)CCN(c4c(F)cccc4Cl)CC3)ccc(F)c2N1`, the melting point was in the range of 212 to 213 °C.

`O=C1CCc2c(OCC3(O)CCN(c4c(F)cc(OCC(F)(F)F)cc4F)CC3)ccc(Cl)c2N1` showed a melting point of 178.6 to 178.7 °C.

In turn, `O=C1CCc2c(OCC3(O)CCN(c4cccc(Cl)c4)CC3)ccc(F)c2N1` had a melting point of 169 to 170 °C.

Compound `O=C1CCc2c(OCC3(O)CCN(c4c(F)cc(F)cc4F)CC3)ccc(Cl)c2N1` displayed a melting point of 175.6 to 176.1 °C.

`CCOc1cc(N2CCC(O)(COc3ccc(Cl)c4c3CCC(=O)N4)CC2)c(F)cc1F` displayed a melting point of 182.1 to 182.4 °C.

Take `O=C1CCc2c(OC[C@]3(O)CCN(c4c(F)cc(Cl)cc4F)C[C@H]3O)ccc(Cl)c2N1`: the melting point was in the range of 197 to 199 °C.

`CCOc1cc(F)c(N2CC[C@@](O)(COc3ccc(F)c4c3CCC(=O)N4)[C@H](O)C2)c(F)c1` (relative stereo) [Example 316]: the melting point is 199 to 202 °C.

Compound `O=C1CCc2c(OC[C@]3(O)CCN(c4c(F)cc(Br)cc4F)C[C@@H]3O)ccc(F)c2N1` (relative stereo) came in with a melting point of 209 to 210 °C.

In turn, `O=C1CCc2c(OC[C@]3(O)CCN(c4c(F)cc(Cl)cc4F)C[C@H]3F)ccc(F)c2N1` (relative stereo) [Example 440] yielded a melting point of 222 to 223 °C.

The compound `N#Cc1cc(F)ccc1N1CCC(COc2ccc(F)c3c2CCC(=O)N3)(ON)CC1` yielded a melting point of 207 to 208 °C.

On to `CCOc1ccc(N2CCC(O)(COc3ccc(F)c4c3CCC(=O)N4)CC2)cc1`, for which the melting point lay within 198.8 to 199.1 °C.

`O=C1CCc2c(cccc2OCC2(O)CCN(c3ccc(Cl)cc3F)CC2)N1` registered a melting point of 231.6 to 232.9 °C.

Compound `O=C1CCc2c(OC[C@]3(O)CCN(c4c(F)cc(F)cc4F)C[C@H]3O)ccc(F)c2N1` (relative stereo) [Example 305] showed a melting point of 198 to 199 °C.

Consider `CCCOc1ccc(N2CCC(O)(COc3ccc(F)c4c3CCC(=O)N4)CC2)c(F)c1`, for which the melting point lay in the range of 185.1 to 185.9 °C.

The compound `O=C1CCc2c(OCC3(O)CCN(c4ccc5occc5c4)CC3)ccc(F)c2N1` returned a melting point of 215.7 to 216 °C.

The compound `O=C1CCc2c(OCC3(O)CCN(c4cc(OCCOc5ccc(F)cc5)c(Cl)cc4F)CC3)ccc(F)c2N1` showed a melting point of 159.2 to 160 °C.

The compound `Cc1cc(Cl)cc(Cl)c1N1CCC(O)(COc2ccc(F)c3c2CCC(=O)N3)CC1` came in with a melting point of 251.6 to 251.9 °C.

On to `CC(C)Oc1ccc(N2CCC(O)(COc3ccc(F)c4c3CCC(=O)N4)CC2)c(F)c1`, for which the melting point was 191.9 to 192.2 °C.

In the case of `O=C1CCc2c(OCC3CCN(c4ncc(Cl)cc4Cl)CC3)ccc(Cl)c2N1`, the melting point was 190 to 191 °C.

Turning to `NC1(COc2ccc(F)c3c2CCC(=O)N3)CCN(c2ncc(F)cc2F)CC1`, the melting point was in the range of 160.9 to 163.1 °C.

In turn, `O=C1CCc2c(NCC3(O)CCN(c4ccc(Cl)cc4Cl)CC3)ccc(F)c2N1` had a melting point of 226 to 227 °C.

Regarding `O=C1CCc2c(OCC3(O)CCN(c4ccc(OCc5ccc(C(F)(F)F)cn5)cc4F)CC3)ccc(F)c2N1`, the melting point fell in the range of 194.9 to 195.1 °C.

Take `O=C1CCc2c(OC[C@]3(O)CCN(c4ccc(Br)cc4F)C[C@H]3O)cc(F)c(F)c2N1` (relative stereo): the melting point was in the range of 214 to 216 °C.

Turning to `Cc1cc(N2CCC(O)(COc3ccc(Cl)c4c3CCC(=O)N4)CC2)c(F)cc1F`, the melting point fell in the range of 195 to 195.2 °C.

Compound `O=C1CCc2c(OC[C@]3(O)CCN(c4ccc(OC(F)F)cc4)C[C@H]3O)ccc(F)c2N1` gave a melting point of 163.1 to 164.6 °C.

Compound `O=C1CCc2c(OC[C@]3(O)CCN(c4c(F)cc(Br)cc4F)C[C@H]3O)cc(F)c(Cl)c2N1` had a melting point of 199 to 199.6 °C.

On to `O=C1CCc2c(OCC3(O)CCN(c4ccc(F)cc4F)CC3)ccc(Cl)c2N1`, for which the melting point is 200 to 200.3 °C.

On to `O=C1CCc2c(OCC3(O)CCN(c4ccc5ccccc5n4)CC3)ccc(F)c2N1`, for which the melting point lay in the range of 198 to 199 °C.

In the case of `O=C1CCc2c(OC[C@]3(O)CCN(c4cc(Cl)c(F)cc4Cl)C[C@H]3O)ccc(Cl)c2N1`, the melting point was in the range of 237.7 to 238.6 °C.

Regarding `O=C1CCc2c(OCC3(O)CCN(c4ccc5sccc5c4)CC3)ccc(F)c2N1`, the melting point was 209.5 to 210.2 °C.

Compound `C[C@]1(O)CN(c2ncc(Cl)cc2Cl)CC[C@]1(O)COc1ccc(F)c2c1CCC(=O)N2` (relative stereo) returned a melting point of 182.6 to 187.5 °C.

In turn, `CCOc1cc(F)c(N2CCC(O)(COc3ccc(F)c4c3CCC(=O)N4)CC2)cc1OC` had a melting point of 190.8 to 191.1 °C.

In the case of `CC(C)c1cc(N2CCC(O)(COc3ccc(F)c4c3CCC(=O)N4)CC2)c(F)cc1Cl`, the melting point was in the range of 225.3 to 225.7 °C.

On to `O=C1CCc2c(OC[C@]3(O)CCN(c4ccc(F)cc4Cl)C[C@H]3O)cc(F)c(Cl)c2N1`, for which the melting point was in the range of 175.7 to 177 °C.

In turn, `NOC1(COc2ccc(F)c3c2CCC(=O)N3)CCN(c2ncc(Cl)cc2Cl)CC1` gave a melting point of 147 to 149 °C.

With `O=C1CCc2c(OCC3(O)CCN(c4cc(F)c(Cl)cc4Cl)CC3)ccc(F)c2N1`, the melting point is 198.7 to 198.9 °C.

Take `O=C1CCc2c(OC[C@]3(O)CCN(c4c(F)cc(OCC(F)(F)F)cc4F)C[C@H]3O)ccc(F)c2N1` (relative stereo) [Example 310]: the melting point was 201 to 202 °C.

The compound `CCCc1cc(N2CCC(O)(COc3ccc(Cl)c4c3CCC(=O)N4)CC2)c(F)cc1F` yielded a melting point of 156.9 to 157 °C.

The compound `O=C1CCc2c(OC[C@]3(O)CCN(c4ccc(Cl)cc4F)C[C@H]3F)ccc(F)c2N1` (relative stereo) had a melting point of 194 to 195 °C.

As for `CCc1cc(N2CCC(O)(COc3ccc(F)c4c3CCC(=O)N4)CC2)c(F)cc1F`, the melting point fell in the range of 186.7 to 186.8 °C.

For `O=C1CCc2c(OCC3(O)CCN(c4cc5c(cc4F)OC(F)(F)O5)CC3)ccc(Cl)c2N1`, the melting point was 213.4 to 213.5 °C.

Take `O=C1CCc2c(OCC3(O)CCN(c4ccc(Cl)cn4)CC3)ccc(F)c2N1`: the melting point fell in the range of 192 to 192.3 °C.

`O=C1CCc2c(OCC3(O)CCN(c4ncc(C(F)(F)F)cc4Cl)CC3)ccc(F)c2N1` gave a melting point of 172.5 to 172.7 °C.

As for `O=C1CCc2c(OCC3(O)CCN(c4ccc(OC(F)F)cc4F)CC3)ccc(F)c2N1`, the melting point is 201.6 to 202 °C.

As for `O=C1CCc2ccc(OCC3(O)CCN(c4ccc(Cl)cc4F)CC3)cc2N1`, the melting point fell in the range of 207.8 to 208.7 °C.

`O=C1CCc2c(OCC3(O)CCN(c4c(F)cc(OC(F)F)cc4F)CC3)ccc(Cl)c2N1` came in with a melting point of 143.6 to 143.7 °C.

For the compound `O=C1CCc2c(OC[C@]3(O)CCN(c4cc5c(cc4F)OC(F)(F)O5)C[C@H]3O)ccc(F)c2N1` (relative stereo), the melting point was in the range of 197.4 to 197.5 °C.

The compound `O=C1CCc2c(OC[C@]3(O)CCN(c4ccc(F)cc4)C[C@H]3O)ccc(F)c2N1` [Example 337] registered a melting point of 185.2 to 185.3 °C.

Consider `Cc1ccc(N2CCC(O)(COc3ccc(F)c4c3CCC(=O)N4)CC2)nc1C`, for which the melting point lay in the range of 197.9 to 199.6 °C.

For the origin of these results see patent US10464926B2, “Heterobicyclic compounds and their use for the treatment of tuberculosis” (OTSUKA PHARMACEUTICAL CO., LTD., priority 2014, dated 2019).
